Measured values taken from patent US9410152B2, “Use of microrna molecules to influence skin pigmentation” (CHANEL PARFUMS BEAUTE, priority 2011, dated 2016).
“Also recorded” adds a separate entry of the source.

Experiments:
Format in all cases: cell-based, human
[1] = system: mRNA MITF-M; experiment: qRT-PCR mRNA expression of MITF-M; conditions: MNT-1 cells, 50 nM mimetic, day 12, relative to cel-miR-239b, ΔΔCt
Procedure: (§1) 4×10^5 MNT-1 cells were seeded per well in a 6-well plate (#353046, Falcon) on day-1. On day 0, the cells were transfected with 50 nM of mimetic of the miRNAs (hsa-mir-137 # C-300604-07-005, hsa-mir-7 # C-300547-05-0005, hsa-mir-330-5p # C-301082-01-0005, negative control # NC-002000-01-05, Dharmacon), using 5 μL of Lipofectamine 2000 (#1668-019, Invitrogen). On day 1, the medium was changed. On day 3, the cells were trypsinized and seeded at 4×10^5 cells per well. On day 4, the cells were transfected again with 50 nM of mimetic of the miRNAs (see day 0). On day 5, the medium was changed. On day 7, the cells were trypsinized and seeded at 4×10^5 cells per well. On day 8, the cells were transfected with 50 nM of mimetic of the miRNAs (see day 0). On day 9, the medium was changed. On day 10, the cells were trypsinized and divided into two (from one by six wells to two by six wells). On day 12, one six-well plate was used for lysis of the RNA and the other for lysis of the proteins. As positive control of depigmentation, MNT-1 cells were incubated with 3.5 mM of kojic acid (Sigma K3125-5G) for 12 days. The cells were distributed as described and the kojic acid was renewed with the medium every 4 days. The percentage inhibition of the kojic acid is of the order of 10%. 700 μL of Qiazol lysis buffer (Qiagen) was added per well of a six-well dish after washing the cells twice with PBS. The total RNA was isolated using the miRNeasy Mini kit (Qiagen) according to the manufacturer's protocol. The total RNA was eluted in 30 μl of water without RNAse. The concentration of RNA was measured using the NanoVue spectrophotometer (GE Healthcare). 1 μg of total RNA was reverse-transcribed using the MLV RT-Enzyme system (Invitrogen) in 60 μL of reaction to produce the corresponding cDNA. […] The concentrations of primers and the sequences are given in Table 5 below: The relative quantity was evaluated using the ΔΔCt comparative method. Briefly, this method compares the quantity of expression of the target gene relative to an endogenous control TBP, within a sample for normalizing the expression. […]

[2] = system: mRNA TYRP1; experiment: qRT-PCR mRNA expression of TYRP1; conditions: MNT-1 cells, 50 nM mimetic, day 12, relative to cel-miR-239b, ΔΔCt
Procedure: as §1

[3] = system: mRNA MLANA; experiment: qRT-PCR mRNA expression of MLANA; conditions: MNT-1 cells, 50 nM mimetic, day 12, relative to cel-miR-239b, ΔΔCt
Procedure: as §1

[4] = system: MITF; experiment: Western blot of MITF protein; conditions: MNT-1 cells, 50 nM mimetic, day 12
Procedure: (§2) 4×10^5 MNT-1 cells were seeded per well in a 6-well plate (#353046, Falcon) on day-1. On day 0, the cells were transfected with 50 nM of mimetic of the miRNAs (hsa-mir-137 # C-300604-07-005, hsa-mir-7 # C-300547-05-0005, hsa-mir-330-5p # C-301082-01-0005, negative control # NC-002000-01-05, Dharmacon), using 5 μL of Lipofectamine 2000 (#1668-019, Invitrogen). On day 1, the medium was changed. On day 3, the cells were trypsinized and seeded at 4×10^5 cells per well. On day 4, the cells were transfected again with 50 nM of mimetic of the miRNAs (see day 0). On day 5, the medium was changed. On day 7, the cells were trypsinized and seeded at 4×10^5 cells per well. On day 8, the cells were transfected with 50 nM of mimetic of the miRNAs (see day 0). On day 9, the medium was changed. On day 10, the cells were trypsinized and divided into two (from one by six wells to two by six wells). On day 12, one six-well plate was used for lysis of the RNA and the other for lysis of the proteins. As positive control of depigmentation, MNT-1 cells were incubated with 3.5 mM of kojic acid (Sigma K3125-5G) for 12 days. The cells were distributed as described and the kojic acid was renewed with the medium every 4 days. The percentage inhibition of the kojic acid is of the order of 10%. […] The concentration of proteins was determined with the BCA Protein Assay (ThermoFisher). […]

[5] = system: TYR proteins; experiment: Western blot of TYR protein; conditions: MNT-1 cells, 50 nM mimetic, day 12
Procedure: as §2

Substance | levels of mRNA MITF-M ([1]; listed as miR-7) | levels of mRNA TYRP1 ([2]; listed as miR-7) | levels of mRNA MLANA ([3]; listed as miR-7) | level of protein MITF (Western blot) [4] | content of TYR proteins (Western blot) [5] | levels of mRNA MITF-M [1] | levels of mRNA MITF-M ([1]; listed as miR-137) | levels of mRNA TYRP1 [2] | levels of mRNA TYRP1 ([2]; listed as miR-137) | levels of mRNA MLANA [3] | levels of mRNA MLANA ([3]; listed as miR-137)
hsa-miR-7: mimetic of miRNA hsa-mir-7 (Dharmacon C-300547-05-0005); mature hsa-miR-7-5p sequence SEQ ID NO: 2 (UGGAAGACUAGUGAUUUUGUUGU; commercial mimic, chemistry not given here; listed as Homo sapiens) | appears to reduce; also recorded: slightly reduced | appears to reduce; also recorded: slightly reduced | appears to reduce; also recorded: slightly reduced | decreases | decreases | – | – | – | – | – | –
hsa-miR-137: mimetic of miRNA hsa-mir-137 (Dharmacon C-300604-07-005); mature sequence SEQ ID NO: 3 (UUAUUGCUUAAGAAUACGCGUAG; commercial mimic, chemistry not given here; listed as Homo sapiens) | – | – | – | eliminates | – | significantly reduced | considerably reduced | significantly reduced | considerably reduced | significantly reduced | considerably reduced
hsa-miR-330-5p: mimetic of miRNA hsa-mir-330-5p (Dharmacon C-301082-01-0005); mature sequence 5'-UCUCUGGGCCUGUGUCUUAGGC-3' (SEQ ID NO: 1) (UCUCUGGGCCUGUGUCUUAGGC; mimic duplex, passenger strand not given here; listed as Homo sapiens) | – | – | – | – | decreased | – | – | – | – | – | –
